Earlier results as cited in patent publication US20250000839A1, “PHARMACEUTICAL COMPOSITION COMPRISING ENAVOGLIFLOZIN” (DAEWOONG PHARMACEUTICAL CO., LTD., priority 2021, published 2025).

Tests used:
human SGLT2 = biological target: T1, human SGLT2 (Homo sapiens, UniProt P31639); conditions: disclosed in U.S. Patent Publication No. 2015/0152075
T1 sequence (P31639 1-672): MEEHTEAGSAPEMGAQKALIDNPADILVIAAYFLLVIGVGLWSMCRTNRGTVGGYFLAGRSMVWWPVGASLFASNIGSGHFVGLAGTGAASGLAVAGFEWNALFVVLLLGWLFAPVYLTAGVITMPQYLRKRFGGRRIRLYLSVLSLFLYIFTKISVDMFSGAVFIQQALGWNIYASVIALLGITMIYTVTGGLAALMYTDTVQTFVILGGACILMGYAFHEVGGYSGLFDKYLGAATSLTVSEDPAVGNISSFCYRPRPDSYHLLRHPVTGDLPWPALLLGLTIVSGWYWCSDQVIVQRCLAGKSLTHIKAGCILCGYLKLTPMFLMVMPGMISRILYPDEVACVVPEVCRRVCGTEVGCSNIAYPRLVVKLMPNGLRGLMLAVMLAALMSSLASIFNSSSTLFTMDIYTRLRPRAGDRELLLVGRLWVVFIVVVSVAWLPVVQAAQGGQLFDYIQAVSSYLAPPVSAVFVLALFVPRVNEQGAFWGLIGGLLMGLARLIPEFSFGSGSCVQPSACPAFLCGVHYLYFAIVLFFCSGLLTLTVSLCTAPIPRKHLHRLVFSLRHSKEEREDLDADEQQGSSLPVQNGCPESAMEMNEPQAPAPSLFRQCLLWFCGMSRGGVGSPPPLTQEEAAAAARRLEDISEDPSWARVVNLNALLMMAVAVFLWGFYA

[1] = at a very low dose of 1/100th of the dose compared to the same class of drugs
[2] = phase 2 clinical trials; 0.1 mg, 0.3 mg and 0.5 mg groups

OC[C@H]1O[C@@H](c2cc(Cc3ccc(C4CC4)cc3)c(Cl)c3c2CCO3)[C@H](O)[C@@H](O)[C@@H]1O [enavogliflozin, (2S,3R,4R,5S,6R)-2-(7-chloro-6-(4-cyclopropylbenzyl)-2,3-dihydrobenzofuran-4-yl)-6-(hydroxymethyl)tetrahydro-2H-pyran-3,4,5-triol]
inhibitory effect on human SGLT2 activity (human SGLT2): excellent inhibitory effect | urinary sugar secretion (glucose excreted in urine) efficacy [1]: excellent | blood sugar-lowering effect compared to the placebo [2]: statistically significant blood sugar-lowering effect
